Measured values: the supplement of paper PMC10307832

Experiments:
Assay in all cases: relative viability (nuclei count vs DMSO), 5 days (fraction); higher = more cells survive
[1] = compound: C1/C(=C\C2=CC=CS2)/C(=O)/C(=C/C3=CC=CS3)/C1 + C[C@@H](Oc1cc(-c2cnn(C3CCNCC3)c2)cnc1N)c1c(Cl)ccc(F)c1Cl [Crizotinib] (partner 1 µM)
Method in brief: (§1)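 Lung cancer cell lines in 1536-well plates got either a single drug or a fixed anchor-drug dose together with five library-drug doses (not always all listed) in √10 steps, by pin tool, on the day after seeding. Nuclei were counted after 5 days, and relative viability is the treated-to-vehicle ratio of nuclei counts. Values are medians of duplicate plates.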

[2] = compound: C1/C(=C\C2=CC=CS2)/C(=O)/C(=C/C3=CC=CS3)/C1 + O=C(CCCCCCC(=O)Nc1ccccc1)NO [Vorinostat] (partner 1 µM)
Method in brief: as §1

[3] = compound: C[C@]12O[C@H](C[C@]1(O)CO)n1c3ccccc3c3c4c(c5c6ccccc6n2c5c31)CNC4=O [Lestaurtinib] + O=C(c1cc(Cc2n[nH]c(=O)c3ccccc23)ccc1F)N1CCN(C(=O)C2CC2)CC1 [Olaparib] (partner 8 µM)
Method in brief: as §1

[4] = compound: C[C@]12O[C@H](C[C@]1(O)CO)n1c3ccccc3c3c4c(c5c6ccccc6n2c5c31)CNC4=O [Lestaurtinib] + CC1(C)CCC(c2ccc(Cl)cc2)=C(CN2CCN(c3ccc(C(=O)NS(=O)(=O)c4ccc(N[C@H](CCN5CCOCC5)CSc5ccccc5)c(S(=O)(=O)C(F)(F)F)c4)cc3)CC2)C1 [Navitoclax] (partner 0.5 µM)
Method in brief: as §1

| Cell Line | relative viability ([1]; first compound 0.2 µM) | relative viability ([1]; first compound 0.6325 µM) | relative viability ([1]; first compound 2 µM) | relative viability ([1]; first compound 6.325 µM) | relative viability ([1]; first compound 20 µM) | relative viability ([2]; first compound 0.2 µM) | relative viability ([2]; first compound 0.6325 µM) | relative viability ([2]; first compound 2 µM) | relative viability ([2]; first compound 6.325 µM) | relative viability ([2]; first compound 20 µM) | relative viability ([3]; first compound 0.005 µM) | relative viability ([3]; first compound 0.01581 µM) | relative viability ([3]; first compound 0.05 µM) | relative viability ([3]; first compound 0.1581 µM) | relative viability ([3]; first compound 0.5 µM) | relative viability ([4]; first compound 0.005 µM) | relative viability ([4]; first compound 0.01581 µM) | relative viability ([4]; first compound 0.05 µM) | relative viability ([4]; first compound 0.1581 µM) | relative viability ([4]; first compound 0.5 µM) |
| --- | --- | --- | --- | --- | --- | --- | --- | --- | --- | --- | --- | --- | --- | --- | --- | --- | --- | --- | --- | --- |
| NCI-H1563 | 0.843 | 0.887 | 0.899 | 0.832 | 0.987 | – | – | – | – | – | – | – | – | – | – | – | – | – | – | – |
| NCI-H661 | 1.02 | 0.986 | 0.948 | 0.947 | 1.02 | 0.845 | 0.825 | 0.756 | 0.638 | 0.778 | 0.813 | 0.754 | 0.684 | 0.735 | 0.419 | – | – | – | – | – |
| NCI-H522 | – | – | – | – | – | 0.967 | 0.911 | 0.893 | 1.01 | 0.909 | 0.741 | 0.617 | 0.665 | 0.617 | 0.429 | – | – | – | – | – |
| NCI-H1299 | 0.958 | 0.976 | 0.928 | 0.903 | 0.589 | – | – | – | – | – | 0.994 | 1.06 | 0.814 | 0.89 | 0.721 | 1.02 | 1.06 | 0.946 | 0.845 | 0.489 |
| NCI-H650 | 0.658 | 0.921 | 0.632 | 0.893 | 0.768 | 0.432 | 0.436 | 0.419 | 0.413 | 0.373 | 0.43 | 0.413 | 0.382 | 0.319 | 0.28 | – | – | – | – | – |
| NCI-H358 | 0.623 | 0.661 | 0.599 | 0.438 | 0.693 | 0.8 | 0.814 | 0.704 | 0.511 | 0.773 | 0.548 | 0.396 | 0.408 | 0.322 | 0.141 | – | – | – | – | – |
| NCI-H1648 | – | – | – | – | – | 0.435 | 0.408 | 0.603 | 0.366 | 0.297 | – | 0.979 | – | 1.08 | 0.478 | – | – | – | – | – |
| EBC-1 | 0.204 | 0.213 | 0.191 | 0.189 | 0.22 | – | – | – | – | – | 0.711 | 0.794 | 0.695 | 0.639 | 0.45 | 0.381 | 0.51 | 0.343 | 0.328 | 0.193 |
| NCI-H1395 | – | – | – | – | – | 0.668 | 0.767 | 1.03 | 0.744 | 0.8 | 0.498 | 0.494 | 0.426 | 0.406 | 0.369 | 1.38 | 1.28 | 1.06 | 0.912 | 0.413 |
| ABC-1 | 1.05 | 1.21 | 1.25 | 1.01 | 0.92 | 1.17 | 0.964 | 1.5 | 0.724 | 1.24 | 0.735 | 0.785 | 0.902 | 1.13 | 0.937 | – | – | – | – | – |
| NCI-H1703 | 0.94 | 1.12 | 0.919 | 0.585 | 0.737 | – | – | – | – | – | 0.437 | 0.285 | 0.145 | 0.212 | 0.123 | 1.22 | 1.09 | 0.424 | 0.219 | 0.11 |
| NCI-H1793 | – | – | – | – | – | 1.02 | 0.753 | 0.892 | 0.654 | 0.734 | 0.97 | 1.05 | 0.549 | 0.848 | 0.482 | 0.504 | 0.745 | 0.393 | 0.334 | 0.232 |
